The target of test [1] is 5-hydroxytryptamine receptor 1B (Homo sapiens, UniProt P28222). Put plainly: Binding at Human Serotonin Receptors Competition Binding in Human 5-HT1B Receptor Assay. The procedure:
Serotonin 5-HT1B receptor competition binding experiments were carried out in a polypropylene 96-well plate. […] The reaction mixture (Vt: 250 μl/well) was incubated at 25° C. for 90 min, 200 μL was transfered to GF/C 96-well plate (Millipore, Madrid, Spain) pretreated with 0.5% of PEI and treated with binding buffer (Tris-HCl 50 mM, EDTA 1 mM, MgCl2 10 mM, pH=7.4), after was filtered and washed four times with 250 μl wash buffer (Tris-HCl 50 mM, pH=7.4), before measuring in a microplate beta scintillation counter (Microbeta Trilux, PerkinElmer, Madrid, Spain).

For test [2], the target named is 5-hydroxytryptamine receptor 2A (Homo sapiens, UniProt P28223). Put plainly: Competition Binding in Human 5-HT2A Receptor. The procedure: Serotonin 5-HT2A receptor competition binding experiments were carried out in a polypropilene 96-well plate. In each well was incubated 80 μg of membranes from CHO-5-HT2A cell line prepared in the laboratory (protein concentration=4337 μg/ml), 1 nM [3H]-Ketanserin (47.3 Ci/mmol, 1 mCi/ml, Perkin Elmer NET791250UC) and compounds studied and standard. Non-specific binding was determined in the presence of Methysergide 1 μM (Sigma M137). The reaction mixture (Vt: 250 μl/well) was incubated at 37° C. for 30 min, 200 μL was transfered to GF/B 96-well plate (Millipore, Madrid, Spain) pretreated with 0.5% of PEI and treated with binding buffer (Tris-HCl 50 mM, pH=7.4), after was filtered and washed six times with 250 μl wash buffer (Tris-HCl 50 mM, pH=6.6), before measuring in a microplate beta scintillation counter (Microbeta Trilux, PerkinElmer, Madrid, Spain).
5-hydroxytryptamine receptor 2A, sequence (P28223 whole entry): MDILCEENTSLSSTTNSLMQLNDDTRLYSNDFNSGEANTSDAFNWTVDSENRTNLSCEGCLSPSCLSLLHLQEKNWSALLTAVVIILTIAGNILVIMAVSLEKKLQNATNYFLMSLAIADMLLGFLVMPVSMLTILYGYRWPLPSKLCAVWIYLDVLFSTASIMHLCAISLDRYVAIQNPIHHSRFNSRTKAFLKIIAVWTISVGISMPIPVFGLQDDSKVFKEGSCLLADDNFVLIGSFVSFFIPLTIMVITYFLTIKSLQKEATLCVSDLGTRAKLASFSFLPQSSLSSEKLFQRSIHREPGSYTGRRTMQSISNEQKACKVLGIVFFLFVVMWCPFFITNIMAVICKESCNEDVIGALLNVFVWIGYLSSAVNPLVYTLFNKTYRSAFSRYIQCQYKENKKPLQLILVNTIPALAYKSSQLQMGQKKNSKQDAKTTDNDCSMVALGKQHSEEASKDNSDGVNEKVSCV

5-hydroxytryptamine receptor 1B, sequence (P28222 whole entry): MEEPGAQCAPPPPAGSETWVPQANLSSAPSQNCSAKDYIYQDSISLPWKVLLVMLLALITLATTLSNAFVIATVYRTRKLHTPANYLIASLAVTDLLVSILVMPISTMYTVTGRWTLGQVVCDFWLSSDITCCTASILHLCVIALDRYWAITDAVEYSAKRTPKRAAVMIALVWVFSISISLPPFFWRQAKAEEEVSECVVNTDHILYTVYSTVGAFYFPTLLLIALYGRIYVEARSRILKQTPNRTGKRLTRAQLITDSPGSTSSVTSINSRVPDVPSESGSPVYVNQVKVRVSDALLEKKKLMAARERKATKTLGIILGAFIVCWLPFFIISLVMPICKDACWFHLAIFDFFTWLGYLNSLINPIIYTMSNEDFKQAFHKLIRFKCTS

With `Cc1nc(-c2ccc(-c3ccc(C(=O)Nc4cc(OCCN(C)C)c(Br)cn4)cn3)c(C3CC3)c2)no1` [US20240166639, Example 39], the Ki is 0.4 nM in test [1] and 2500 nM in test [2].

Usually Ki stands for the equilibrium dissociation constant of an inhibitor or competing ligand from its target. Higher therefore signals a looser hold on the target.

Source of the values: BindingDB's records for patent US20240166639 (Leukos Biotech, 2024).
